Reference: US20250011364A1, “TUMOR TISSUE-PENETRATING PEPTIDE, SPECIFICALLY BINDING TO NEUROPILIN 1, FOR DRUG DELIVERY TO TUMOR, AND USE THEREOF” (CELLICON LAB INC., priority 2022, published 2025)

Assays:
NRP-1 = NRP-1 (Homo sapiens, UniProt O14786); assay: Competitive ELISA assay, inhibition of VEGF 165 binding to NRP-1; details: NRP-1 treated with peptide and VEGF, competitive ELISA (FIG. 6)
Description: Therefore, the tumor tissue-penetrating peptide is more likely to bind to NRP-1 competitively, and thus can interfere with neovascularization, and this means that the tumor tissue-penetrating peptide can suppress tumor growth (FIG. 6).

AsPC-1 cells = assay: MTT assay: improvement of anticancer efficacy of doxorubicin; type: cell-based; details: 48 hours, compared to the group treated with only doxorubicin (FIG. 1)
Experimental: In order to examine the function of the present invention as a tumor tissue-penetrating peptide, the effect of the present invention on improving the anticancer efficacy of doxorubicin was evaluated. Specifically, the effect of a tumor tissue-penetrating peptide consisting of any one amino acid sequence selected from SEQ ID NO: 5 to SEQ ID NO: 8 of the present invention and SEQ ID NO: 1 to SEQ ID NO: 4, derivatives thereof, on improving the anticancer efficacy of doxorubicin was evaluated.
Specifically, in order to evaluate the effect of improving anticancer efficacy, AsPC-1 cells were used to perform the MTT assay, and cell viability was analyzed and compared (FIG. 1).
Pancreatic cancer cells (AsPC-1) were cultured in 96-well plates at 2×10^5 cells/ml for 24 hours, then treated with samples at various concentrations, and cultured for another 48 hours. […] After 4 hours, the MTT solution was removed, DMSO was added to each well to dissolve formazan at 37° C. for 30 minutes, and then the absorbance was measured at 570 nm using a microplate reader (Molecular Devices Spectra MAX, Sunnyvale, CA, USA). In all experiments, the results were statistically processed by taking the average value for three wells for each concentration, and expressed as a relative viability (%) compared to that in the group treated with no sample.

AsPC-1 xenograft [1] = assay: Tumor tissue penetration of FITC-albumin, confocal microscopy; type: in vivo, mice; details: FITC-albumin iv in conjugation/combination with peptide vs singly, tumor extracted 1, 3 and 24 hours later (FIG. 5)
Experimental: In order to examine the effect of the peptide of SEQ ID NO: 8 of the present invention on improving the tumor tissue-penetrating ability of physiologically active substances, FITC-albumin was injected intravenously (iv) singly or in conjugation/combination with the tumor tissue-penetrating peptide (five minutes) into tumor-induced AsPC-1 xenograft mice, the tumor was extracted 1, 3, and 24 hours later, and analysis was performed using a confocal microscope (albumin molecular weight: about 70 kDa).

AsPC-1 xenograft [2] = assay: Tumor tissue penetration of doxorubicin, confocal microscopy of tumor slides; type: in vivo, mice; details: peptide 5 μM/kg iv, doxorubicin 10 mg/kg iv 10 minutes later, tumor extracted 24 hours later; vs doxorubicin only and doxorubicin + iRGD (FIG. 4)
Experimental: In order to examine the effect of the peptide of SEQ ID NO: 8 of the present invention on improving the tumor tissue-penetrating ability of a physiologically active substance, tumor-induced AsPC-1 xenograft mice were treated with only doxorubicin, doxorubicin and iRGD as a positive control, or with tumor tissue-penetrating peptide, and the effect was compared.
Specifically, iRGD or tumor tissue-penetrating peptide (5 μM/kg) was injected intravenously (iv) into AsPC-1 xenograft mice, doxorubicin (Dox; 10 mg/kg) was injected intravenously 10 minutes later, and then the tumor was extracted 24 hours later to construct paraffin slides. The slides were stained with anti-CD31-FITC (vascular endothelial cell marker), and Dox (red)/CD31 (FITC) was analyzed using a confocal microscope.

NRP-1, sequence (O14786 22-923): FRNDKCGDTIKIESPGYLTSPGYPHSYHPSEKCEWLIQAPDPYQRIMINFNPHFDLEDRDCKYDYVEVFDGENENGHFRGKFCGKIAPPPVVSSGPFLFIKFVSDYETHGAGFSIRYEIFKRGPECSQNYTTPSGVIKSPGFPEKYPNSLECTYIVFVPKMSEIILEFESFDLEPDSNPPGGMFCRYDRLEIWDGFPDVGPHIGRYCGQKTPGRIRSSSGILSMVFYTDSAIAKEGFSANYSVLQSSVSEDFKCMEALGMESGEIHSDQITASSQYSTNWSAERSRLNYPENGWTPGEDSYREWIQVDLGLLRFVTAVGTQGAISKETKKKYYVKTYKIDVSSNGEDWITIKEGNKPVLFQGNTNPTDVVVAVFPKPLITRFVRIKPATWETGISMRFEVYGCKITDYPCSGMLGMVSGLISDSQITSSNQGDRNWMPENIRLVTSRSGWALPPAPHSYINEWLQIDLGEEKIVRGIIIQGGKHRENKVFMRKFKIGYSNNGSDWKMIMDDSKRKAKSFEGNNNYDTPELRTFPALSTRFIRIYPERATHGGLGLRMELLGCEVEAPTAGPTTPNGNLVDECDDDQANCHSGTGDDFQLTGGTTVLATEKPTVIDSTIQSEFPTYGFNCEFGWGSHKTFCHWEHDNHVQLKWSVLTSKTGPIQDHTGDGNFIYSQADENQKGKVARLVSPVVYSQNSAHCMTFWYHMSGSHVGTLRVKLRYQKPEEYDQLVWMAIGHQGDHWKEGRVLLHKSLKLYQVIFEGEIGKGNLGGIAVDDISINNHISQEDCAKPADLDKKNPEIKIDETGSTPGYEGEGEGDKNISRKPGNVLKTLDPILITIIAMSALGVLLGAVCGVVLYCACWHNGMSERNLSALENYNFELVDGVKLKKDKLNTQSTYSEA

Q: With “H2N-[Arg-Lys-Leu-Phe-Arg-Lys-Ile-Leu-Lys-Tyr-Leu-Arg]-CO2H (RKLFRKILKYLR) [SEQ ID NO: 8, tumor tissue-penetrating peptide]” as the substance, how does the “NRP-1 binding of VEGF165” value (NRP-1) read?
A: decreases

Q: What about the “effect of improving anticancer efficacy of doxorubicin (cell viability)” value (AsPC-1 cells) of the same substance?
A: most effective

Q: What about the “tumor-penetrating ability of albumin” value (AsPC-1 xenograft [1]) of the same substance?
A: increased

Q: What about the “tumor tissue-penetrating ability of doxorubicin” value (AsPC-1 xenograft [2]) of the same substance?
A: significantly superior
